{"source": "patent US6268385A", "about": "“Dry blend pharmaceutical formulations” (priority 2000, dated 2001)", "format_in_all_cases": "physicochemical", "key": {"[1]": {"assay": "Solubility assessment as a function of HPβCD concentration", "method": "Solubility studies were performed by the addition of a known mass of 5(6)-methoxy-2-[[(4-methoxy-3,5-dimethyl-2-pyridinyl)-methyl]sulfinyl]-1H- benzimidazole and/or HP CD to a given volume of solvent system. Solubilities were determined by observation, as the maximum concentration at which 5(6)-methoxy-2-[[(4-methoxy-3,5-dimethyl-2-pyridinyl)-methyl]sulfinyl]-1H- benzimidazole completely dissolved. Additionally, concentrations of 5(6)-methoxy-2-[[(4-methoxy-3,5-dimethyl-2-pyridinyl)-methyl]sulfinyl]-1H- benzimidazole and HP C D at set molar ratios were solubilized in systems of high pH (adjusted as high as 12.2, with 1N NaOH), the pH was adjusted (using 2N HCl) in a stepwise downward manner until precipitation occurred.\nThe solubility of 5(6)-methoxy-2-[[(4-methoxy-3,5-dimethyl-2-pyridinyl)-methyl]sulfinyl]-1H- benzimidazole was assessed as a function of HPβCD concentration in water.\nThe procedure according to Example 86 was repeated except that water with a borate buffer (pH of 8) was employed.\nThe procedure according to Example 86 was repeated except that water with a phosphate buffer (pH of 11) was employed."}, "[2]": {"assay": "FT-Raman quantitation of 5-/6-methoxy isomers in omeprazole API, partial least squares", "method": "Nicolet Instruments Corp., Madison, Wis.). The present method is conducted in three steps: preparation of standards, establishing a standard curve, and analysis of samples. Typically, a minimum of 4 to 5 standards are prepared. […] In addition to the USP standard, it is necessary to use a standard which is very low in 5-methoxy isomer concentration, preferably in pure form, one which has a high concentration of 5-methoxy isomer such as in the range of about 40%, and a series of at least two other standards distributed over the range from about 5% to about 25%. To establish the standard curve, each standard is run in at least triplicate using the step and repeat sampling device operating in the continuous mode with 15 replicates for each standard preparation and 500 scans per replicate, using a resolution of 2 cm^-1, and a laser power of about 0.7 watt, under instrumental parameters set to generate an acceptable S/N. […] Using such an algorithm, the area percent of the 6-methoxy isomer of each standard having both the 5- and 6-methoxy isomer is determined. The standard deviation for each set of replicates is less than about 0.7% and the average standard deviation for the average of all runs and replicates of a given standard is less than about 0.7% or the resulting data should be investigated. […] Correlation coefficients should be at or above about 0.98 among all standards. Each API sample is then analyzed using the method similar to that described for establishing the standards, except at least triplicate preparations with at least five replicates per sample preparation, and at least 100 scans per replicate with triplicate preparations per sample. Using the above-referenced partial least squares analysis, the percent 6-methoxy isomer, and thus the percent 5-methoxy isomer is determined for each scan and the average of the 15 spectra is calculated. The standard deviation (SD) for each set of replicates is less than about 1.0%, and the average standard deviation of all runs and replicates of a given sample is less than about 1.0%. If the standard deviation is above 1.0%, the results should be investigated. High standard deviation values are an indication of variability which may be caused by small amounts of sample burning. If this is suspected, the preparation should be run again."}, "[3]": {"assay": "FT-Raman determination of 5-/6-methoxy isomers in omeprazole API, classical least squares", "settings": "commercial API lots", "method": "This method also used an FT-Raman spectrometer (Nicolet Nexus 670 with an FT-Raman accessory, 1064 nm laser, and a step and repeat sampling device). This method, too, is conducted in three stages: preparation of standards, establishing a standard curve, and analysis of samples. Typically a minimum of 4 to 5 standards are prepared. The present FT-Raman method for API and drug product analysis uses the same method set forth above to prepare and establish the standard curve, including preferred aspects, as the method set forth for the more quantitative API method relative to the number of preparations, replicates, and scans per replicate of each standard, resolution, sampling device, deconvolution of standard peaks, determination of peak area, and standard deviation for each set of replicates and the average of all runs and replicates of a given standard. […] In general, the method is performed by a ratio of a peak related to the 6-methoxy isomer (about 1627 cm^-1) to a suitable internal omeprazole band (about 1587 cm^-1). […] Correlation coefficients of the standard curve are at or above about 0.95 among all standards. […] Using the above-referenced corrected classical least squares analysis, the percent 6-methoxy isomer, and thus the percent 5-methoxy isomer, is determined for each scan, and the average of the 15 spectra is calculated."}, "[4]": {"settings": "commercial API lots, listed as 01"}, "[5]": {"settings": "commercial API lots, listed as 02"}, "[6]": {"settings": "commercial API lots, listed as 03"}}, "data": [{"smiles": "COc1ccc2[nH]c([S+]([O-])Cc3ncc(C)c(OC)c3C)nc2c1", "note": "(centres unmarked) [5(6)-methoxy-2-[[(4-methoxy-3,5-dimethyl-2-pyridinyl)-methyl]sulfinyl]-1H-benzimidazole]", "values": [{"measurement": "solubility as a function of HPβCD concentration", "setting": "[1]; borate buffer, pH of 8", "value": "increase linearly"}, {"measurement": "solubility as a function of HPβCD concentration", "setting": "[1]; phosphate buffer, pH of 11", "value": "increase linearly"}, {"measurement": "solubility as a function of HPβCD concentration", "setting": "[1]; water", "value": "increase linearly"}]}, {"smiles": "COc1ccc2nc([S+]([O-])Cc3ncc(C)c(OC)c3C)[nH]c2c1", "note": "(centres unmarked) [Example 1, 6-methoxy-2-[[(4-methoxy-3,5-dimethyl-2-pyridinyl)-methyl]sulfinyl]-1H-benzimidazole]", "values": [{"measurement": "% 5-isomer", "setting": "[2]; standards", "value": 5.875, "unit": "%"}, {"measurement": "% 6-isomer", "setting": "[2]; standards", "value": 94.125, "unit": "%"}]}, {"smiles": "COc1ccc2nc([S+]([O-])Cc3ncc(C)c(OC)c3C)[nH]c2c1", "note": "(centres unmarked) [Example 1a, 6-methoxy-2-[[(4-methoxy-3,5-dimethyl-2-pyridinyl)methyl]sulfinyl]-1H-benzimidazole]", "values": [{"measurement": "% 5-isomer", "setting": "[2]; standards", "value": 0.000, "unit": "%"}, {"measurement": "% 6-isomer", "setting": "[2]; standards", "value": 100.000, "unit": "%"}]}, {"smiles": "COc1ccc2[nH]c([S+]([O-])Cc3ncc(C)c(OC)c3C)nc2c1", "note": "(centres unmarked) [Example 36, (5)6-methoxy-2-[[(4-methoxy-3,5-dimethyl-2-pyridinyl)-methyl]sulfinyl]-1H-benzimidazole]", "values": [{"measurement": "% 5-isomer", "setting": "[2]; standards", "value": 16.005, "unit": "%"}, {"measurement": "% 6-isomer", "setting": "[2]; standards", "value": 83.995, "unit": "%"}]}, {"smiles": "COc1ccc2[nH]c([S+]([O-])Cc3ncc(C)c(OC)c3C)nc2c1", "note": "(centres unmarked) [Example 37, (5)6-methoxy-2-[[(4-methoxy-3,5-dimethyl-2-pyridinyl)-methyl]sulfinyl]-1H-benzimidazole]", "values": [{"measurement": "% 5-isomer", "setting": "[2]; standards", "value": 12.246, "unit": "%"}, {"measurement": "% 6-isomer", "setting": "[2]; standards", "value": 87.754, "unit": "%"}]}, {"smiles": "COc1ccc2[nH]c([S+]([O-])Cc3ncc(C)c(OC)c3C)nc2c1", "note": "(centres unmarked) [Example 41, (5)6-methoxy-2-[[(4-methoxy-3,5-dimethyl-2-pyridinyl)-methyl]sulfinyl]-1H-benzimidazole]", "values": [{"measurement": "% 5-isomer", "setting": "[2]; standards", "value": 16.414, "unit": "%"}, {"measurement": "% 6-isomer", "setting": "[2]; standards", "value": 83.587, "unit": "%"}]}, {"smiles": "COc1ccc2[nH]c([S+]([O-])Cc3ncc(C)c(OC)c3C)nc2c1", "note": "(centres unmarked) [Example 44, (5)6-methoxy-2-[[(4-methoxy-3,5-dimethyl-2-pyridinyl)-methyl]sulfinyl]-1H-benzimidazole]", "values": [{"measurement": "% 5-isomer", "setting": "[2]; standards", "value": 41.258, "unit": "%"}, {"measurement": "% 6-isomer", "setting": "[2]; standards", "value": 58.742, "unit": "%"}]}, {"smiles": "COc1ccc2[nH]c([S+]([O-])Cc3ncc(C)c(OC)c3C)nc2c1", "note": "(centres unmarked) [Lot 01]", "values": [{"measurement": "% 5-isomer", "setting": "[2]; [4]", "value": 7.50, "unit": "%"}, {"measurement": "% 6-isomer", "setting": "[2]; [4]", "value": 92.50, "unit": "%"}, {"measurement": "% 5-isomer", "setting": "[3]; listed as 01", "value": 6.14, "unit": "%"}, {"measurement": "% 6-isomer", "setting": "[3]; listed as 01", "value": 93.86, "unit": "%"}]}, {"smiles": "COc1ccc2[nH]c([S+]([O-])Cc3ncc(C)c(OC)c3C)nc2c1", "note": "(centres unmarked) [Lot 02]", "values": [{"measurement": "% 5-isomer", "setting": "[2]; [5]", "value": 8.02, "unit": "%"}, {"measurement": "% 6-isomer", "setting": "[2]; [5]", "value": 91.98, "unit": "%"}, {"measurement": "% 5-isomer", "setting": "[3]; listed as 02", "value": 6.56, "unit": "%"}, {"measurement": "% 6-isomer", "setting": "[3]; listed as 02", "value": 93.44, "unit": "%"}]}, {"smiles": "COc1ccc2[nH]c([S+]([O-])Cc3ncc(C)c(OC)c3C)nc2c1", "note": "(centres unmarked) [Lot 03]", "values": [{"measurement": "% 5-isomer", "setting": "[2]; [6]", "value": 7.61, "unit": "%"}, {"measurement": "% 6-isomer", "setting": "[2]; [6]", "value": 92.39, "unit": "%"}, {"measurement": "% 5-isomer", "setting": "[3]; listed as 03", "value": 6.40, "unit": "%"}, {"measurement": "% 6-isomer", "setting": "[3]; listed as 03", "value": 93.60, "unit": "%"}]}, {"smiles": "COc1ccc2[nH]c([S+]([O-])Cc3ncc(C)c(OC)c3C)nc2c1", "note": "(centres unmarked) [USP]", "values": [{"measurement": "% 5-isomer", "setting": "[2]; standards", "value": 7.250, "unit": "%"}, {"measurement": "% 6-isomer", "setting": "[2]; standards", "value": 92.750, "unit": "%"}]}]}
